Test results from article PMC9502701 (Molecules, 2022).

Biological target: neuraminidase (NA) (Influenza A virus, UniProt Q6DPL2)
Format: biochemical
Conditions: for Inhibition Rate (%): 100 μg/mL standard compounds; for IC50: standard compounds

neuraminidase (NA), sequence (Q6DPL2 whole entry, looked up): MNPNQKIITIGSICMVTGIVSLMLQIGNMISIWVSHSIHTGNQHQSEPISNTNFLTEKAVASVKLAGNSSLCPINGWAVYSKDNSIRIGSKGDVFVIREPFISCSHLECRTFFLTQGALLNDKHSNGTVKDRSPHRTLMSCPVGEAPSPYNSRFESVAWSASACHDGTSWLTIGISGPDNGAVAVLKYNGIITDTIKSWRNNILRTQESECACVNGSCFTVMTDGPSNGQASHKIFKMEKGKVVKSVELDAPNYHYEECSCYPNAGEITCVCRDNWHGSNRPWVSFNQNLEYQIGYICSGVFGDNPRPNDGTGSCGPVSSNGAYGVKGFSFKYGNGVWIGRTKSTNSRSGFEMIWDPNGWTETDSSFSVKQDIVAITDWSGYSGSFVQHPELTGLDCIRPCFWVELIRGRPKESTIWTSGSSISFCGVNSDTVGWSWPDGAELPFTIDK

## O=C(/C=C/c1ccc(O)c(O)c1)O[C@@H]1C[C@@](O)(C(=O)O)C[C@@H](O)[C@@H]1O [Neochlorogenic acid, neochlorogenic acid]
  Inhibition Rate (%): 76.00%
  IC50: 157 µM

## O=C(/C=C/c1ccc(O)c(O)c1)O[C@@H]1[C@H](O)C[C@@](O)(C(=O)O)C[C@H]1OC(=O)/C=C/c1ccc(O)c(O)c1 [4,5-Di-O-caffeoylquinic acid]
  Inhibition Rate (%): 75.90%
  IC50: 132 µM

## C=C[C@H]1[C@H](O[C@@H]2O[C@H](CO)[C@@H](O)[C@H](O)[C@H]2O)OC=C(C(=O)OC)[C@H]1CC(=O)O [Secoxyloganin, secoxyloganin]
  Inhibition Rate (%): 37.74%

## O=C(/C=C/c1ccc(O)c(O)c1)O[C@H]1[C@H](O)C[C@](O)(C(=O)O)C[C@H]1O [Cryptochlorogenic acid, cryptochlorogenic acid]
  Inhibition Rate (%): 54.89%
  IC50: 290 µM
